PubChem BioAssay AID1253 (Columbia University Molecular Screening Center, 2008)
Activity calls are given as the source filed them.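 The calls were made as follows: active = IC50 under 10 µM in the follow-up dose response; inactive = IC50 10 µM or more, or under 40% single-dose inhibition.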

Target: Tyrosine-protein phosphatase non-receptor type 22 (Homo sapiens) (UniProt Q9Y2R2)
Assay: LYP phosphatase inhibitors, confirmation, biochemical, DiFMUP fluorescence, retest and dose response (AID 1253)
Conditions: recombinant LYP; for inhibition: at 10 µM, hits give high values

Tyrosine-protein phosphatase non-receptor type 22 (Homo sapiens), sequence (Q9Y2R2 whole entry, looked up): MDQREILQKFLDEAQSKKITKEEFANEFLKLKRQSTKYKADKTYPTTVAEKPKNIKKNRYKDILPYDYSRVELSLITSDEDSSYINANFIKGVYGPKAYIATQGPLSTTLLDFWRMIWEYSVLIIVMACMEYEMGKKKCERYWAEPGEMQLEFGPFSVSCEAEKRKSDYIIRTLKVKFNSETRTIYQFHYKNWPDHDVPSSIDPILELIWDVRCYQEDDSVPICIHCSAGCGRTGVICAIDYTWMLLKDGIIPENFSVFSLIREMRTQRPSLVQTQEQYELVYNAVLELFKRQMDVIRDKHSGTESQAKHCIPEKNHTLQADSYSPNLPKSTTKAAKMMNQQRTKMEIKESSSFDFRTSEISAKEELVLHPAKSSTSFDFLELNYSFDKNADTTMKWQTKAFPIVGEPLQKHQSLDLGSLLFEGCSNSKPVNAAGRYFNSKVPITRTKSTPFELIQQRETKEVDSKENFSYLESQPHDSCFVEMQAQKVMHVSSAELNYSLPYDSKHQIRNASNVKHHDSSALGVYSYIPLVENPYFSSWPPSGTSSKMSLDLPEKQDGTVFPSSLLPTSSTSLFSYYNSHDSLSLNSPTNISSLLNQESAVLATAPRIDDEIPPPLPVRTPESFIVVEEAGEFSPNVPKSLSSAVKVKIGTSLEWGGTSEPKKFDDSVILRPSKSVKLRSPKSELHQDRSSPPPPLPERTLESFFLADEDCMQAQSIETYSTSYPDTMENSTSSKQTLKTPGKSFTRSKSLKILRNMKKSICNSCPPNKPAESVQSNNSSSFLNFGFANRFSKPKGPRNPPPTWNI

SMILES	inhibition	IC50
N#CC(c1cccc(C(F)(F)F)c1)(c1ncc(C(F)(F)F)cc1Cl)N1CCOCC1 (stereo not given)	inactive	
O=C(O)CCCN1C(=O)/C(=C/c2ccc(-c3nc4ccccc4s3)o2)SC1=S		1.13 µM
Cc1c(CCOC(=O)C2C3CC4CC(C3)CC2C4)sc[n+]1CC(=O)c1ccc(Br)cc1 (stereo not given)	inactive	
Nc1nnnn1/N=C/c1ccccc1C(F)(F)F	inactive	
N#Cc1nc(-c2ccc(OCc3ccc(Cl)cc3)cc2)oc1NCCCn1ccnc1	inactive	
Nc1nnc(SCC(=O)Nc2ccc(S(=O)(=O)N3CCOCC3)cc2)s1	inactive	
O=C(CSc1nc2ccccc2c2nc3ccccc3n12)NCc1ccco1	inactive	
Cc1cc(C)n2nc(SCc3cc(=O)oc4cc(O)ccc34)nc2n1	inactive	
Cc1cc(-c2csc(N)n2)c(C)n1CCC(C)C	inactive	
O=C(O)CCCCCNc1nc(=S)[nH]c2ccccc12	inactive	
CC(C)C(C(=O)O)N1C(=O)/C(=C/C=C/c2ccco2)SC1=S (stereo not given)		2.94 µM
Cc1cc(C(C)(C)C)cc(C)c1COC(=O)C1CCC(=O)N1 (stereo not given)	inactive	
CCCCCCc1cc2cc(-c3nnc(-c4ccccc4OC)o3)c(=O)oc2cc1O	inactive	
COc1ccccc1OCc1nnc(SCC(=O)NCc2ccco2)n1Cc1ccco1	inactive	
CCCNc1cc(=O)n(C)c(=O)n1C	inactive	
CC(C(=O)O)N1C(=O)/C(=C/C=C/c2ccco2)SC1=S (stereo not given)		3.7 µM
CCCCNS(=O)(=O)c1ccc(NS(=O)(=O)c2c(C)cc(C)cc2C)cc1	inactive	
CCOC(=O)CC(=O)CSc1nc2c(C)c(C)ccc2cc1C	inactive	
O=C(c1cccs1)c1no[n+]([O-])c1C(=O)c1cccs1		1.66 µM
Cc1ccc(C(=O)NNC(=O)CSc2nnc3c(n2)[nH]c2ccc(F)cc23)cc1	inactive	
CCOC(=O)c1c(-n2c(C)cc(C=C3C(=O)NC(=S)NC3=O)c2C)sc2c1CCCC2	inactive	
Cc1ccc(-c2nc3ccccc3[nH]2)cc1NC(=O)c1sc2ccccc2c1Cl	inactive	
CC(C)(C)c1cc(NCCCn2ccnc2)n2ncc(-c3ccc(Cl)cc3)c2n1	inactive	
CCNC(=O)COc1cc(C)c(Cl)c(C)c1	inactive	
Cc1nc(S/C(=C/c2ccc(-c3cccc(Cl)c3)o2)C(=O)O)n[nH]1	inactive	

SMILES	inhibition	IC50
COC(=O)c1sccc1-n1cccc1C(=O)N1CCOCC1	inactive	
C(=C/c1ccnc2nc(SC/C=C/c3ccccc3)nn12)/c1ccccc1	inactive	
O=C(Cn1c2ccccc2c(=O)c2ccccc21)N/N=C/c1cc([N+](=O)[O-])ccc1N1CCCCCC1	inactive	
O=C(O)CCN1C(=O)/C(=C/c2ccc(-c3nc4ccccc4s3)o2)SC1=S		1.45 µM
COc1cnc(-c2ccccn2)nc1Sc1ccc(Cl)cc1	inactive	
COc1ccc(C2C(=O)N(C3CCCCC3)CC(=O)N2C2CCCCC2)cc1 (stereo not given)	inactive	
O=C(Nc1nc(-c2ccccn2)cs1)c1ncc(Cl)c(Cl)c1Cl	inactive	
O=C(CN(C(=O)CNC(=O)c1ccco1)c1ccc2c(c1)OCO2)NC1CCCCC1	inactive	
Cc1ccc(Nc2cc(C)nn2-c2nc(C)cc(=O)[nH]2)cc1	inactive	
c1ccc(-c2ccc(C3=Nn4c(nnc4-c4cc(-c5ccccc5)n[nH]4)SC3)cc2)cc1	inactive	
Cc1nnc(NC(=O)Nc2ccc(Cl)c(Cl)c2)s1	inactive	
Cc1ccc(NC(=O)CN2C(=O)S/C(=C/c3ccc(-c4cc(C(=O)O)ccc4C)o3)C2=O)cc1C	inactive	
C=CCNC(=S)NNC(=O)c1cccn(Cc2ccc(Cl)cc2)c1=O	inactive	
Cc1ccccc1Cn1ccc(NC(=O)CCSc2nc(-c3ccco3)cc(C(F)(F)F)n2)n1	inactive	
c1ccc(-c2cc(-c3nnc4n3N=C(c3ccc5ccccc5c3)CS4)[nH]n2)cc1	inactive	
O=C(NCc1ccco1)c1ccc2nc3sc4c(c3c(=O)n2c1)CCCC4	inactive	
Cc1ccc2nc(NC(=O)c3cccc(-c4cc5ccccc5oc4=O)c3)sc2c1	inactive	
CC1CCc2c(C(=O)Nc3nccs3)csc2C1 (stereo not given)	inactive	
CCNC(=S)NNC(=O)c1cccn(Cc2ccc(Cl)cc2Cl)c1=O	inactive	
Cc1ccc(NC(=O)CN2C(=O)S/C(=C\c3ccc(-c4cccc(C(=O)O)c4C)o3)C2=O)cc1	inactive	
O=C1C2C(C(=O)N1CCc1ccccc1)C1C=CC2C12CC2 (stereo not given)	inactive	
CCOC(=O)Cc1csc(NC(=S)NC(=O)c2ccc(Cl)cc2)n1	inactive	
CN(C)c1ccc(/C=N/N=C2/NC(=O)/C(=C/c3ccc([N+](=O)[O-])cc3)S2)cc1	inactive	
CCn1c(CSc2nc3ccccc3s2)nnc1SCC(=O)c1ccc(O)c(O)c1	inactive	
CCCC(=O)Nc1ccc2c(c1)nc(CCNC(=O)c1ccccc1)n2C	inactive	
